From patent US20220257518A1, “LONG-LASTING FORMULATION CONTAINING RIVASTIGMINE, AND METHOD FOR PREPARING SAME” (priority 2019, published 2022)

assay: Rivastigmine and pamoate contents in rivastigmine pamoate (HPLC); assay type: physicochemical; details: HPLC 210 nm
Method: In order to measure the contents of rivastigmine and pamoate of rivastigmine pamoate prepared in Example 1, the sample 10 mg was completely dissolved with dimethyl sulfoxide, and then was diluted into a mobile phase. The diluted solution 20 uL was injected to HPLC and was measured at a detection wavelength 210 nm. The column used in the present measurement was Inertsil ODS-3, 5 um, 4.6×250 mm, and the mobile phase was used by mixing phosphate buffer solution (pH 6.0) and acetonitrile at a ratio of 65:35 (v/v).

Compared with rivastigmine pamoate [Sample 1-1], rivastigmine pamoate [Sample 1-2] is lower in “Pamoate content of rivastigmine pamoate” value: 40.49 % by weight for the first, 40.47 % by weight for the second.

First: rivastigmine pamoate [Sample 1-3]
Second: rivastigmine pamoate [Sample 1-4]
The “Pamoate content of rivastigmine pamoate” value of the first is lower: 53.79 % by weight for the first, 68.93 % by weight for the second.

Going from rivastigmine pamoate [Sample 1-1] to rivastigmine pamoate [Sample 1-2], the “Rivastigmine content of rivastigmine pamoate” value falls from 57.47 % by weight to 52.45 % by weight.

Going from rivastigmine pamoate [Sample 1-3] to rivastigmine pamoate [Sample 1-4], the “Rivastigmine content of rivastigmine pamoate” value falls from 41.10 % by weight to 32.19 % by weight.

assay: not given; details: cited from earlier work

In the case of `CCN(C)C(=O)Oc1cccc([C@H](C)N(C)C)c1` [rivastigmine freebase, rivastigmine], the Solubility in water is given as no more than 5000 µg/mL.
